The source of these data is ChEMBL document CHEMBL2010763, “Discovery of a new binding mode for a series of liver X receptor agonists” (Bioorg Med Chem Lett, 2012).

Each structure is given as a SMILES string. Calls of active or inactive are those of the source. The rule behind the calls is not given here.

Assay [1] deals with T1, Oxysterols receptor LXR-alpha (Homo sapiens) (UniProt Q13133).
T1 sequence (whole entry): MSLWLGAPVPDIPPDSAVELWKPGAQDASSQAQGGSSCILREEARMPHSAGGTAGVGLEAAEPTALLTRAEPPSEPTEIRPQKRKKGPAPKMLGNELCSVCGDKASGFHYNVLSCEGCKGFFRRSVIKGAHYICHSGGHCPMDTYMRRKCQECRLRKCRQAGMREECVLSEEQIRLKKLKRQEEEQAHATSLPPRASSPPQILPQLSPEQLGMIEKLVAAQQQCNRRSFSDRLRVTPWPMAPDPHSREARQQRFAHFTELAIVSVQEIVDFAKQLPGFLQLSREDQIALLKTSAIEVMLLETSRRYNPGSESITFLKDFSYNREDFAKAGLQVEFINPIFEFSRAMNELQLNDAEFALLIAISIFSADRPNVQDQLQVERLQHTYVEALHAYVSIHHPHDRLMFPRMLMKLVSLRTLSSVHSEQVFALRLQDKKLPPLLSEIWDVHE
Nature of the assay: (§1) Displacement of [3H]N-(4-(1,1,1,3,3,3-hexafluoro-2-hydroxypropan-2-yl)phenyl)-N-methylbenzenesulfonamide from LXRalpa by scintillation proximity assay. Background: Loss of bound radioactivity is the signal in a displacement assay; it reports binding, not function.

Assay [2] has as its target Oxysterols receptor LXR-beta (Homo sapiens, UniProt P55055). Nature of the assay: Displacement of [3H]N-(4-(1,1,1,3,3,3-hexafluoro-2-hydroxypropan-2-yl)phenyl)-N-methylbenzenesulfonamide from LXRbeta by scintillation proximity assay.
Assay [3] deals with T2, Oxysterols receptor LXR-alpha (Homo sapiens, UniProt Q13133).
T2 sequence (Q13133 whole entry): T1 sequence (whole entry)
The assay is described as §1.

Chain of Oxysterols receptor LXR-beta (P55055 whole entry): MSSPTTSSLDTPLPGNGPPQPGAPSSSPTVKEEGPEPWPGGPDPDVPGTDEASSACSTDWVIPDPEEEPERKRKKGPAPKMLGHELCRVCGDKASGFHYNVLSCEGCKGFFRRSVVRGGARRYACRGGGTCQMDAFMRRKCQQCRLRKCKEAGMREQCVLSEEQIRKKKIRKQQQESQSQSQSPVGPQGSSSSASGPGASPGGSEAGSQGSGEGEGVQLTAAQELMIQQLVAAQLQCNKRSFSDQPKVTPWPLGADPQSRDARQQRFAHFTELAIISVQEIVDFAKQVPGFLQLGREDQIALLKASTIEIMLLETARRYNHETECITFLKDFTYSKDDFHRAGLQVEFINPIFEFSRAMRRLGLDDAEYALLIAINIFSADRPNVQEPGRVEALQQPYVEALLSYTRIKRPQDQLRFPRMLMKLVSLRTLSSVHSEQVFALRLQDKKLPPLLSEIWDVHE

Regarding `CN(c1ccc(C(O)(c2cccn2C)C(F)(F)F)cc1)S(=O)(=O)c1ccccc1` (centres undefined), the inhibition entry in assay [1] and in assay [2] was “inactive” in each case.
In the case of `CN(c1ccc(C(O)(c2ccc[nH]2)C(F)(F)F)cc1)S(=O)(=O)c1ccccc1` (centres undefined), the inhibition result in assay [1] and in assay [2] was “inactive” in each case.
As to `CCC(C)n1cccc1C(O)(c1ccc(N(C)S(=O)(=O)c2ccccc2)cc1)C(F)(F)F` (centres undefined), the inhibition entry in assay [1] and in assay [2] was “inactive” throughout.
As for `COCCn1cccc1C(O)c1ccc(N(C)S(=O)(=O)c2ccccc2)cc1` (centres undefined), the inhibition result in assay [1] and in assay [2] was “inactive” throughout.
Regarding `CN(c1ccc(C(O)(c2cccn2CCO)C(F)(F)F)cc1)S(=O)(=O)c1ccccc1` (centres undefined), the inhibition result in assay [1] and in assay [2] was “inactive” throughout.
Consider `COCCn1cccc1C(CO)c1ccc(N(C)S(=O)(=O)c2ccccc2)cc1` (centres undefined), for which the inhibition entry in assay [1] and in assay [2] was “inactive” in each case.
Consider `COCCn1cccc1C(=O)c1ccc(N(C)S(=O)(=O)c2ccccc2)cc1`, for which the inhibition entry in assay [1] and in assay [2] was “inactive” in each case.
Regarding `CCCn1cccc1C(O)(c1ccc(N(C)S(=O)(=O)c2ccccc2)cc1)C(F)(F)F` (centres undefined), the inhibition result in assay [1] and in assay [2] was “inactive” each time.
As to `CCCC(c1ccc(N(C)S(=O)(=O)c2ccccc2)cc1)c1cccn1CCOC` (centres undefined), the inhibition result in assay [1] and in assay [2] was “inactive” each time.
In the case of `COCCn1cccc1C(C)(O)c1ccc(N(C)S(=O)(=O)c2ccccc2)cc1` (centres undefined), the inhibition result in assay [1] and in assay [2] was “inactive” each time.
On to `CCC(O)(c1ccc(N(C)S(=O)(=O)c2ccccc2)cc1)c1cccn1CCOC` (centres undefined), for which the inhibition entry in assay [1] and in assay [2] was “inactive” in each case.
Regarding `CN(c1ccc(C(O)(c2cccn2CCCO)C(F)(F)F)cc1)S(=O)(=O)c1ccccc1` (centres undefined), the inhibition entry in assay [1] and in assay [2] was “inactive” each time.
Regarding `CCCC(O)(c1ccc(N(C)S(=O)(=O)c2ccccc2)cc1)c1cccn1CCOC` (centres undefined), the inhibition entry in assay [1] and in assay [2] was “inactive” each time.
In the case of `CCC(c1ccc(N(C)S(=O)(=O)c2ccccc2)cc1)c1cccn1CCOC` (centres undefined), the inhibition result in assay [1] and in assay [2] was “inactive” in each case.
Take `COCCn1cccc1C(OC)c1ccc(N(C)S(=O)(=O)c2ccccc2)cc1` (centres undefined): the inhibition result in assay [1] and in assay [2] was “inactive” throughout.
In the case of `CCCCn1cccc1C(O)(c1ccc(N(C)S(=O)(=O)c2ccccc2)cc1)C(F)(F)F` (centres undefined), the inhibition entry in assay [1] and in assay [2] was “inactive” in each case.
As to `CCCCCCn1cccc1C(O)(c1ccc(N(C)S(=O)(=O)c2ccccc2)cc1)C(F)(F)F` (centres undefined), the inhibition result in assay [1] and in assay [2] was “inactive” each time.
For `COCCn1cccc1C(C)c1ccc(N(C)S(=O)(=O)c2ccccc2)cc1` (centres undefined), the inhibition result in assay [1] and in assay [2] was “inactive” each time.
For the compound `COCCn1cccc1Cc1ccc(N(C)S(=O)(=O)c2ccccc2)cc1`, the inhibition result in assay [1] and in assay [2] was “inactive” each time.
As to `CCn1cccc1C(O)(c1ccc(N(C)S(=O)(=O)c2ccccc2)cc1)C(F)(F)F` (centres undefined), the inhibition entry in assay [1] and in assay [2] was “inactive” each time.
As to `CCOC(c1ccc(N(C)S(=O)(=O)c2ccccc2)cc1)c1cccn1CCOC` (centres undefined), the inhibition result in assay [1] and in assay [2] was “inactive” each time.
A word on the IC50: it is the concentration that gives 50% inhibition. Lower therefore signals higher potency. Consider `COC(c1ccc(N(C)S(=O)(=O)c2ccccc2)cc1)(c1cccn1Cc1ccccc1)C(F)(F)F` (racemic), for which the IC50 in assay [3] and in assay [2] was over 10 µM in each case.
